Assay results published in patent US10829796B2, “Bacteria identification and antimicrobial susceptibility test” (priority 2015, dated 2020).

System: bacteria in clinical bovine mastitis milk samples
Experiment: Combined bacteria identification and antimicrobial susceptibility test (colour of wells, MIC) on clinical bovine mastitis milk samples
Type: cell-based
Description: Clinical bovine mastitis milk samples were collected by a vet clinic in South Island, New Zealand. Samples were stored in the freezer for several months and shipped frozen to the testing facility. In this Example, the term “clinical” means that dairy cows had clinical symptoms of an udder infection e.g. cow behaved unusual, milk clots, swollen udder among other typical symptoms. Testing was executed in microwell plate comprising of 24 wells (3×8 wells).
In addition, 20 ul of clinical mastitis sample was added to each well with a laboratory pipette.
(§1) Abbreviations • 1. 80 ul GC+10 ul Tell: 80 ul Giolitti Cantoni base broth+10 ul Tellurite solution (1%); • 2. 80 ul TSB/Esc/Fer Cit: 80 ul Tryptic soy broth containing 0.25% Esculin and 0.125% Ammonium Ferric Citrate; • 3. 80 ul TSB/Esc/Fer Cit+10 ul Genta: 80 ul Tryptic soy broth containing 0.25% Esculin and 0.125% Ammonium Ferric Citrate+10 ul of Gentamycin solution 10 mg/ml; • 4. 80 ul McC/PR25: 80 ul MacConkey broth (single strength) containing 0.0125% phenol red; and • 5. 80 ul TSB/PR25: 80 ul Tryptic soy broth containing 0.0125% phenol red. Bacteria Identification
Columns A to C and rows 1 and 2 were used for bacteria identification. A1: coagulase positive Staph; A2: Staphylococci; B1: Strep group D; B2: Strep group D; C1: general enrichment media (gram+ and gram-bacteria); C2: coliform bacteria.
Column A3 to A8: serial dilution of benzyl penicillin as potassium. Column B3 to B8: serial dilution of ceftiofur as hydrochloride. Column C3 to C8: serial dilution of cloxacillin as sodium. Antibiotic concentrations are listed as free form ranging between 4 ug/ml to 0.05 ug/ml.
Minimum inhibitory substance concentration (MIC) is here defined as the concentration if a colour change occurs between two wells (one well remains red with drug concentration 1, the other one yellow with drug concentration 2, whereas drug concentration 1 is larger than drug concentration 2) then the MIC is the value of drug concentration 1.
Table 21 indicates the microwell plate configuration #1; Drugs: Benzylpenicillin as potassium; Cloxacillin as sodium; Ceftiofur as hydrochloride; Drug concentration in each well (A3 to C8) is based on 80 μl composition+10 μl drug solution+20 μl clinical mastitis milk sample and equivalent to listed drug concentration in μg/ml; 20 ul of clinical bovine mastitis milk sample was added to each well (A1 to C8).
In addition, each well received one drop of clinical sample from a transfer pipette which was on average about 35 mg. This was determined through weighing the well plate prior and after the addition of clinical mastitis samples. This weight was then divided by 24.
as §1, with “•” for “Abbreviations •”, “red.” for “red. Bacteria Identification”
Columns A to C and rows 1 and 2 were used for bacteria identification. A1: coagulase positive Staph; A2: Staphylococci; B1: Strep Group D; B2: -; C1: general enrichment media (gram+ and gram-); C2: coliform bacteria.
Column A3 to A8: serial dilution of benzyl penicillin as potassium. Drug concentrations given as free form ranging between 4 ug/ml to 0.05 ug/ml. Column B3 to B8: serial dilution of ceftiofur as hydrochloride. Drug concentrations given as free form ranging between 4 ug/ml to 0.05 ug/ml. Column C3 to C8: serial dilution of cloxacillin as sodium. Drug concentrations given as free form ranging between 4 ug/ml to 0.05 ug/ml.

Compound: CC1(C)S[C@@H]2[C@H](NC(=O)Cc3ccccc3)C(=O)N2[C@H]1C(=O)O [benzyl penicillin]
- Colour of media in each well (ID 5 to 8, T = 0 h (prior incubation, reference), plate configuration #2, drug 1 μg/ml): red
- Colour of media in each well (ID 5 to 8, T = 0 h (prior incubation, reference), plate configuration #2, drug 2 μg/ml): red
- Colour of media in each well (ID 5 to 8, T = 0 h (prior incubation, reference), plate configuration #2, drug 4 μg/ml): red
- Colour of media in each well (ID 6, T = 23h, 37° C., plate configuration #2, drug 0.05 μg/ml (Table 31)): yellow
- Colour of media in each well (ID 6, T = 23h, 37° C., plate configuration #2, drug 0.1 μg/ml (Table 31)): yellow
- Colour of media in each well (ID 6, T = 23h, 37° C., plate configuration #2, drug 0.5 μg/ml (Table 31)): yellow
- Colour of media in each well (ID 6, T = 23h, 37° C., plate configuration #2, drug 1 μg/ml (Table 31)): yellow
- Colour of media in each well (ID 6, T = 23h, 37° C., plate configuration #2, drug 2 μg/ml (Table 31)): yellow
- Colour of media in each well (ID 6, T = 23h, 37° C., plate configuration #2, drug 4 μg/ml (Table 31)): yellow
- Colour of media in each well (ID 6, T~7 h, 37° C., plate configuration #2, Table 35, drug 0.05 μg/ml): yellow
- Colour of media in each well (ID 6, T~7 h, 37° C., plate configuration #2, Table 35, drug 0.1 μg/ml): yellow
- Colour of media in each well (ID 6, T~7 h, 37° C., plate configuration #2, Table 35, drug 0.5 μg/ml): yellow
- Colour of media in each well (ID 6, T~7 h, 37° C., plate configuration #2, Table 35, drug 1 μg/ml): yellow
- Colour of media in each well (ID 6, T~7 h, 37° C., plate configuration #2, Table 35, drug 2 μg/ml): yellow
- Colour of media in each well (ID 6, T~7 h, 37° C., plate configuration #2, Table 35, drug 4 μg/ml): yellow
- Colour of media in each well (ID 6, T~11 h, 37° C., plate configuration #2, Table 35, drug 0.05 μg/ml): yellow
- Colour of media in each well (ID 6, T~11 h, 37° C., plate configuration #2, Table 35, drug 0.1 μg/ml): yellow
- Colour of media in each well (ID 6, T~11 h, 37° C., plate configuration #2, Table 35, drug 0.5 μg/ml): yellow
- Colour of media in each well (ID 6, T~11 h, 37° C., plate configuration #2, Table 35, drug 1 μg/ml): yellow
- Colour of media in each well (ID 6, T~11 h, 37° C., plate configuration #2, Table 35, drug 2 μg/ml): yellow
- Colour of media in each well (ID 6, T~11 h, 37° C., plate configuration #2, Table 35, drug 4 μg/ml): yellow
- Colour of media in each well (ID 6, T~23 h, 37° C., plate configuration #2, Table 35, drug 0.05 μg/ml): yellow
- Colour of media in each well (ID 6, T~23 h, 37° C., plate configuration #2, Table 35, drug 0.1 μg/ml): yellow
- Colour of media in each well (ID 6, T~23 h, 37° C., plate configuration #2, Table 35, drug 0.5 μg/ml): yellow
- Colour of media in each well (ID 6, T~23 h, 37° C., plate configuration #2, Table 35, drug 1 μg/ml): yellow
- Colour of media in each well (ID 6, T~23 h, 37° C., plate configuration #2, Table 35, drug 2 μg/ml): yellow
- Colour of media in each well (ID 6, T~23 h, 37° C., plate configuration #2, Table 35, drug 4 μg/ml): yellow
- Colour of media in each well (ID 7, T = 23h, 37° C., plate configuration #2, drug 0.05 μg/ml): yellow
- Colour of media in each well (ID 7, T = 23h, 37° C., plate configuration #2, drug 0.1 μg/ml): yellow
- Colour of media in each well (ID 7, T = 23h, 37° C., plate configuration #2, drug 0.5 μg/ml): red
- Colour of media in each well (ID 7, T = 23h, 37° C., plate configuration #2, drug 1 μg/ml): red
- Colour of media in each well (ID 7, T = 23h, 37° C., plate configuration #2, drug 2 μg/ml): red
- Colour of media in each well (ID 7, T = 23h, 37° C., plate configuration #2, drug 4 μg/ml): red
- Colour of media in each well (ID 8, T = 23 h, 37° C., plate configuration #2, drug 0.05 μg/ml): red
- Colour of media in each well (ID 8, T = 23 h, 37° C., plate configuration #2, drug 0.1 μg/ml): red
- Colour of media in each well (ID 8, T = 23 h, 37° C., plate configuration #2, drug 0.5 μg/ml): red
- Colour of media in each well (ID 8, T = 23 h, 37° C., plate configuration #2, drug 1 μg/ml): red
- Colour of media in each well (ID 8, T = 23 h, 37° C., plate configuration #2, drug 2 μg/ml): red
- Colour of media in each well (ID 8, T = 23 h, 37° C., plate configuration #2, drug 4 μg/ml): red
- Colour of media in each well (Table 24, sample ID 2, 22 hours at 37° C., plate configuration #1, row 3 of serial dilution 4 ug/ml to 0.05 ug/ml): orange
- Colour of media in each well (Table 24, sample ID 2, 22 hours at 37° C., plate configuration #1, row 4 of serial dilution 4 ug/ml to 0.05 ug/ml): orange
- Colour of media in each well (Table 24, sample ID 2, 22 hours at 37° C., plate configuration #1, row 5 of serial dilution 4 ug/ml to 0.05 ug/ml): orange
- Colour of media in each well (Table 24, sample ID 2, 22 hours at 37° C., plate configuration #1, row 6 of serial dilution 4 ug/ml to 0.05 ug/ml): yellow
- Colour of media in each well (Table 24, sample ID 2, 22 hours at 37° C., plate configuration #1, row 7 of serial dilution 4 ug/ml to 0.05 ug/ml): yellow
- Colour of media in each well (Table 24, sample ID 2, 22 hours at 37° C., plate configuration #1, row 8 of serial dilution 4 ug/ml to 0.05 ug/ml): yellow
- MIC (clinical sample ID 1 (streptococci group D), 37° C. for 22 hours, plate configuration #1): 0.1 µg/mL
- MIC (clinical sample ID 2 (streptococci group D, also coagulase positive Staph), 37° C. for 22 hours, plate configuration #1): > 4 µg/mL
- MIC (clinical sample ID 4 (coagulase positive Staph), 37° C. for 22 hours, plate configuration #1): > 4 µg/mL
- MIC (clinical sample ID 5 (streptococci group D), 37° C. for 23 hours, plate configuration #2): < 0.05 µg/mL
- MIC (clinical sample ID 7 (coagulase positive Staph), 37° C. for 23 hours, plate configuration #2): 0.5 µg/mL
- MIC (clinical sample ID 8 (coagulase negative Staph and Streptococci group D), 37° C. for 23 hours, plate configuration #2): < 0.05 µg/mL
